{
  "source": "patent US4478841A",
  "about": "“3-[2-(Tetra- and Hexa- hydro-4-pyridyl)-ethyl]-indoles and their use as medicaments” (Pharmuka Laboratoires, priority 1981, dated 1984)",
  "key": {"[1]": {"assay": "Acute oral toxicity in male CD1 mice", "conditions": "mouse, in vivo, 3 days of observation", "method": "The acute toxicity of the products has been established in the male CD1 (Charles RIVER) mice following oral administration. The LD50 calculated following 3 days of observation by the cumulative method of J. J. Reed and Coll. (Am. J. Hyg. 27, 493-1938) is 600 mg/kg for compounds of Examples 1 and 2 and about 400 mg/kg for the compound of Example 4."}, "[2]": {"tested_on": "serotonin release, human blood platelets", "assay": "Serotonin release from human blood platelets", "assay_type": "cell-based", "conditions": "Platelet, product concentration 5 × 10^-5 moles per liter, relative to controls, read-out: Percent of increased serotonin release", "method": "\"Platelets Function and Thrombosis, a Review of Methods\" p.\nThe action of the products on serotonin release is tested at a concentration of 5×10^-5 moles per liter."}, "[3]": {"tested_on": "serotonin uptake, human blood platelets", "assay": "Inhibition of serotonin uptake by human blood platelets", "assay_type": "cell-based", "conditions": "Platelet, read-out: Inhibition of serotonin uptake I50", "from_the_text": "It is known that serotonin uptake by the blood platelets is a good model of the uptake of this amine by the neurons (cf. J. Tuomisto, J. Pharm., Pharmac., 26, 92 (1974). When applied to the study of medicaments, a method involving the use of blood platelets is of great interest because it allows the use of human cells so that its anticipation character is good.\nThe capacity of products to inhibit serotonin uptake or to induce serotonin release, was shown on human blood platelets, according to J. L. David and Coll. \"Platelets Function and Thrombosis, a Review of Methods\" p. 335 (Plenum Press, London, 1972).\n1. Inhibition of Serotonin uptake\nThe results are expressed by a 50% inhibiting dose or I50 which represents the product dose, in micromoles per liter, which reduces the rate of serotonin uptake by 50%."}},
  "note": "Where two headings read alike, the source gives them in different places.",
  "data": [
    {"smiles": "C1=C(CCc2c[nH]c3ccccc23)CCNC1", "note": "[Example 1, 3-[2-(1,2,5,6-tetrahydro-4-pyridyl)-ethyl]-indole]", "values": [
      {"measurement": "LD50 at 72 h", "setting": "[1]", "value": 600, "unit": "mg/kg"},
      {"measurement": "activation at 50 µM", "setting": "[2]", "value": 85, "unit": "%"},
      {"measurement": "IC50", "setting": "[3]; Homo sapiens", "value": 55, "unit": "nM"}
    ]},
    {"smiles": "CC(Cc1c[nH]c2ccccc12)C1=CCNCC1", "note": "(stereo not drawn) [Example 2, 3-[2-(1,2,5,6-tetrahydro-4-pyridyl)-2-methyl-ethyl]-indole]", "values": [
      {"measurement": "LD50 at 72 h", "setting": "[1]", "value": 600, "unit": "mg/kg"},
      {"measurement": "activation at 50 µM", "setting": "[2]", "value": 68, "unit": "%"},
      {"measurement": "IC50", "setting": "[3]; Homo sapiens", "value": 40, "unit": "nM"}
    ]},
    {"smiles": "CC(Cc1c[nH]c2ccccc12)C1CCNCC1", "note": "(stereo not drawn) [Example 4, 3-[2-(4-piperidyl)-2-methyl-ethyl]-indole]", "values": [
      {"measurement": "LD50 at 72 h", "setting": "[1]", "value": "~400", "unit": "mg/kg"},
      {"measurement": "activation at 50 µM", "setting": "[2]", "value": 76, "unit": "%"},
      {"measurement": "IC50", "setting": "[3]; Homo sapiens", "value": 10, "unit": "nM"}
    ]},
    {"smiles": "CN(C)CCCN1c2ccccc2CCc2ccccc21", "note": "[Imipramine, imipramine, reference compound]", "values": [
      {"measurement": "activation at 50 µM", "setting": "[2]", "value": 13, "unit": "%"},
      {"measurement": "IC50", "setting": "[3]; Homo sapiens", "value": 400, "unit": "nM"}
    ]},
    {"smiles": "c1ccc2c(CCC3CCNCC3)c[nH]c2c1", "note": "[Indalpine, 3-[2-(4-piperidyl)-ethyl]-indole, reference compound]", "values": [
      {"measurement": "activation at 50 µM", "setting": "[2]", "value": 22, "unit": "%"},
      {"measurement": "IC50", "setting": "[3]; human blood platelets, dose reducing the rate of serotonin uptake by 50%", "value": 35, "unit": "nM"}
    ]},
    {"smiles": "CC(N)Cc1ccc(Cl)cc1", "note": "(stereo not drawn) [p-chloro-amphetamine, p-chloroamphetamine, reference compound]", "values": [
      {"measurement": "activation at 50 µM", "setting": "[2]", "value": 51, "unit": "%"},
      {"measurement": "IC50", "setting": "[3]; Homo sapiens", "value": 12000, "unit": "nM"}
    ]}
  ]
}
